For data set [1], the system named is Nek2. The settings on record: read-out: Nek2 inhibitory activity IC50; cited from earlier work.
A short description of data set [2]: HPLC analysis of enamine stability in assay media, DMSO and pH buffers. The class given is physicochemical. The protocol: To determine whether the enamines were hydrolysed under the assay conditions, the stability of representative enamine derivative 72 was assessed in a range of assay media and pH buffers. Stock solutions of 72 in each of the various media were prepared and aliquots were extracted from each solution at various time points and subjected to HPLC analysis to measure the remaining intact enamine (Figure 9).
Solutions of 10 μM 72 were prepared in100% MEM media, 100% RPMI media, 10% (v/v) FCS in MEM, 10% BSA in water (v/v), 10 % FCS (v/v) in water, or 10 % (v/v) boiled FCS in water, DMSO and phosphate buffered water at pH 2, pH 7 and pH 10 by adding 10 μL of the 1 mM working stock of 72 in MeCN to 990 μL of each medium. A 50 μL aliquot was removed directly and immediately extracted as described below. At 5, 10, 15, 30, 60, 90, 120, 180, 240, 360 and 1440 minutes after addition of the drug further aliquots of 50 μL were taken and extracted as below. At each time point the 50 μL of the test solution was added to 50 μL of acetonitrile (MeCN). Samples were mixed for 10 seconds on a vortex mixer and centrifuged at 15700 rcf for 5 minutes in a microcentrifuge. The supernatant solution from each sample was placed into an HPLC vial for analysis. Samples were analysed by reverse phase HPLC with PDA detection.

Data set [3] is described as follows: HPLC analysis of enamine stability in human plasma. The class given is in vitro ADME. The settings on record: over a period of 24 hours.

As a reminder, the IC50 is the concentration that inhibits the measured activity by half. Turning to `C[C@@]12c3ccc4c(c3C(=O)c3occ(c31)C(=O)C[C@H]2O)CCC4=O` [Compound 4], the IC50 in data set [1] was 1900 nM.
Regarding `C(=C\N1CCCCCC1)/c1nc(Nc2ccccc2)nc2[nH]cnc12` [Compound 72, (E)-6-(2-(Azepan-1-yl)vinyl)-N-phenyl-9H-purin-2-amine], the “stability in DMSO” value in data set [2] (DMSO solutions, for over 24 h) is listed as “stable”. Further, the “stability in standard assay media” value in data set [2] (MEM and RPMI media, 10 μM, HPLC) was “degraded at a similar rate”. Also, the “stability at acidic pH” value in data set [2] (pH 2.2) is recorded as “relatively stable”. For the same compound, the “stability at neutral pH” value in data set [2] (pH 7) was “rapidly degraded”. In data set [2] (pH 10.4), the “stability at basic pH” value is reported as “rapidly degraded”. Further, the “stability in human plasma” value in data set [3] is on record as “relatively stable”.

Values taken from PMC5386672, “Structure-guided design of purine-based probes for selective Nek2 inhibition” (Oncotarget, 2016).
